Consider 1 molecule from US20220073536A1 (Rigel Pharmaceuticals, Inc., priority 2003, published 2022).

Molecules are shown by their SMILES. Where two headings read alike, the source gives them in different places.

Series [1] has as its system cultured human mast cells (CHMC). The series can be described thus: CHMC low cell density IgE activation: tryptase assay. Format: cell-based. The note with it: Homo sapiens, Mast cell, low cell density, IgE activation. The gist of the method:
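Anti-IgE-driven degranulation of cultured human mast cells at low density, 1000–1500 cells/well, was induced over 30 min at 37 °C. It was scored by supernatant tryptase activity on a fluorogenic substrate.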

The subject of a further series is C57BL/6 mice. The series can be described thus: Mouse cutaneous Reverse Passive Arthus (RPA) reaction, edema. Format: in vivo. From the text: Immune complex (IC)-mediated acute inflammatory tissue injury is implicated in a variety of human autoimmune diseases, including vasculitis syndrome, sick serum syndrome, systemic lupus erythematosus (SLE), rheumatoid arthritis, Goodpasture's syndrome, and glomerulonephritis. The classical experimental model for IC-mediated tissue injury is the reverse passive Arthus reaction. The RPA reaction model is a convenient in vivo method to study localized inflammation, induced by ICs, without systemic effects. Intradermal injection of antibodies (Abs) specific to chicken egg albumin (rabbit anti-OVA IgG), followed by intravenous (IV) injection of antigens (Ags), specifically chicken egg albumin (ovalbumin, OVA), causes perivascular deposition of ICs and a rapid inflammatory response characterized by edema, neutrophil infiltration and hemorrhage at the injection sites. Aspects of the mouse RPA reaction model resemble the inflammatory response of patients with rheumatoid arthritis, SLE and glomerulonephritis.
(§1) In this model system, test compounds are administered at several timepoints prior to administration of Abs and Ags. A solution of rabbit anti-OVA IgG ([…] in 25 μl/mouse) is injected intradermally, and immediately following is an intravenous injection of chicken egg albumin (20 mg/kg of body weight) in a solution containing 1% Evans blue dye. The degree of edema and hemorrhage is measured in the dorsal skin of C57BL/6 mice using the Evan's Blue dye as an indicator of local tissue damage. Purified polyclonal rabbit IgG is used as a control.
Pretreatment time, in which the test compounds are administered prior to Ab/Ag challenge, depends on the pharmacokinetic (PK) properties of each individual compound. Four hours after induction of Arthus reaction, mice are euthanized, and tissues are harvested for assessment of edema. This model system allows us to rapidly screen the in vivo activity of many inhibitors.
(§2) All compounds tested were administered by the oral route.

Series [2] is described as follows: Plasma concentration in the mouse RPA reaction study. Format: in vivo. As to conditions: oral. The procedure:
as §1
Pretreatment time, in which the test compounds are administered prior to Ab/Ag challenge, depends on the pharmacokinetic (PK) properties of each individual compound. Four hours after induction of Arthus reaction, mice are euthanized, and tissues are harvested for assessment of edema.
as §2

The mark [3] stands for this setting: printed in dosage position 0.5, in pretreatment position 15.

As for `Cn1c(N2CCOCC2)nc2cc(Nc3ncc(F)c(Nc4ccc5c(c4)NC(=O)C(C)(C)O5)n3)ccc21` [Compound 944, N4-(2,2-Dimethyl-3-oxo-4H-benz[1,4]oxazin-6-yl)-5-fluoro-N2-[1-methyl-2-(4-morpholino)benzimidazol-5-yl]-2,4-pyrimidinediamine], the IC50 is < 10 µM in series [1] (3 pt, read-out: LD Tryptase, CHMC, IgE, 3 pt) and < 10 µM in series [1] (8 pt, read-out: LD Tryptase, CHMC, IgE, 8 pt). Moreover, the “% inhibition to vehicle control Edema Size ± SEM” value in the series on C57BL/6 mice (2 mg/kg oral, pretreatment time 1 hr) is recorded as 39.3 ± 13.8%; with C57BL/6 mice (5 mg/kg oral, pretreatment time 1 hr), 48.4 ± 12.0%; in the series on C57BL/6 mice (15 mg/kg oral, pretreatment time 1 hr), 56.1 ± 9.2%; in the series with C57BL/6 mice (oral, dosage 0.5, pretreatment 5), −16.0 ± 17.3%; in the series on C57BL/6 mice (oral, printed in dosage position 0.5, in pretreatment position 15), 8.3 ± 13.4%. Further, the “Exposure = Pretreatment Time + 4 hours Plasma Concentration ± SEM” value in series [2] (dosage 0.5, pretreatment 5) was determined as 3.4 ± 9.1 ng/mL; in series [2] (setting [3]), 85.1 ± 161.9 ng/mL. Besides, the “Satellite: At time of challenge Plasma Concentration ± SEM” value in series [2] (dosage 0.5, pretreatment 5) came out at 22.1 ± 52.4 ng/mL; in series [2] (setting [3]), 1074.0 ± 492.3 ng/mL.
